This assay has as its target T1, human PAH with the R408W mutation (Homo sapiens, UniProt P00439, R408W).
T1 construct: expressed in transfected cells
T1 sequence (P00439 1-452 R408W): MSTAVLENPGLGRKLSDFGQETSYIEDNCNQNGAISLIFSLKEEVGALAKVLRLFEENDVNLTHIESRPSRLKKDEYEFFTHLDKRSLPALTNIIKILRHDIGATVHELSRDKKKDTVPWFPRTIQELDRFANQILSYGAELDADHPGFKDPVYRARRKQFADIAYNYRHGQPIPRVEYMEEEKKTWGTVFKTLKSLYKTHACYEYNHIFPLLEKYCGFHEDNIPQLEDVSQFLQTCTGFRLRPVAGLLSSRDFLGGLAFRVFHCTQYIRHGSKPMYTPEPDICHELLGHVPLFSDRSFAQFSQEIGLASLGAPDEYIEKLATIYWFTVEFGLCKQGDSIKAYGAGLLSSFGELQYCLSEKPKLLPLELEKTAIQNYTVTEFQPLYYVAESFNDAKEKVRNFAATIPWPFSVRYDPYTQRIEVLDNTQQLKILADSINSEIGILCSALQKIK
As to the kind of experiment: Cell Based Phenylalanine Flux Assay. As to conditions: A375 cells expressing human R408W PAH, 13C-Tyrosine by LC-MS, average where tested multiple times, read-out: AC50.

Where two headings read alike, the source gives them in different places.

For 17 compounds, AC50 results are on record in patent publication US20250171438A1 (Agios Pharmaceuticals, Inc., priority 2022, published 2025).

Broadly, the AC50 is the concentration at which the activity in the assay is half-maximal. Consider `O=C(c1nc(Cl)cs1)N1CCc2[nH]cnc2[C@H]1c1nc2ccc(Br)cc2[nH]1` [Example 949, (S)-(4-(6-bromo-1H-benzo[d]imidazol-2-yl)-6,7-dihydro-1H-imidazo[4,5-c]pyridin-5(4H)-yl)(4-chlorothiazol-2-yl)methanone], for which the AC50 (24 hrs compound incubation) was less than 500 nM.

In the case of `Cc1ccc2nc([C@@H]3c4nc[nH]c4CCN3C(=O)c3cncs3)sc2c1` [Example 1303, (S)-(4-(6-methylbenzo[d]thiazol-2-yl)-6,7-dihydro-1H-imidazo[4,5-c]pyridin-5(4H)-yl)(thiazol-5-yl)methanone], the AC50 (24 hrs compound incubation) lay in the range of 500 to 1000 nM.

On to `Cc1nc(-c2ccccn2)oc1C(=O)N1CCc2[nH]cnc2[C@@H]1c1nc2c(F)cccc2s1` [Example 1446, (R)-(4-(4-fluorobenzo[d]thiazol-2-yl)-6,7-dihydro-1H-imidazo[4,5-c]pyridin-5(4H)-yl)(4-methyl-2-(pyridin-2-yl)oxazol-5-yl)methanone], for which the AC50 (24 hrs compound incubation) is more than 5000 nM.

`O=C(Cc1nccs1)N1CCc2[nH]cnc2C1c1nc2ccc(Cl)cc2[nH]1` (centres unmarked): the AC50 (24 hrs with compound) was more than 5000 nM.

`O=C(c1oc(N2CCOCC2)nc1C(F)(F)F)N1CCc2[nH]cnc2[C@@H]1c1nc2c(F)cccc2s1` [Example 1598, (R)-(4-(4-fluorobenzo[d]thiazol-2-yl)-6,7-dihydro-1H-imidazo[4,5-c]pyridin-5(4H)-yl)(2-morpholino-4-(trifluoromethyl)oxazol-5-yl)methanone]: the AC50 (24 hrs compound incubation) was less than 500 nM.

Turning to `Cn1ncnc1C(=O)N1CCc2[nH]cnc2[C@H]1c1nc2ccccc2s1` [Example 1813], the AC50 (24 hrs compound incubation) lay in the range of 500 to 1000 nM.

In the case of `O=C(c1cnc(C2CC2)o1)N1CCc2[nH]cnc2[C@H]1c1nc2ccccc2s1` [Example 1187], the AC50 (24 hrs compound incubation) lay within 500 to 1000 nM.

For the compound `N#Cc1ccn2ncc(C(=O)N3CCc4[nH]cnc4C3c3nc4ccc(Br)cc4[nH]3)c2c1` (centres unmarked), the AC50 (24 hrs with compound) was more than 5000 nM.

On to `CC(C)(O)c1nc(C2CC2)c(C(=O)N2CCc3[nH]cnc3[C@@H]2c2nc3ccccc3s2)o1` [Example 1544, (R)-(4-(benzo[d]thiazol-2-yl)-6,7-dihydro-1H-imidazo[4,5-c]pyridin-5(4H)-yl)(4-cyclopropyl-2-(2-hydroxypropan-2-yl)oxazol-5-yl)methanone], for which the AC50 (24 hrs compound incubation) lay within 1000 to 5000 nM.

Take `O=C(c1nccs1)N1CCc2nc[nH]c2[C@H]1c1nc2c(F)cccc2s1` [Example 1120, (S)-(4-(4-fluorobenzo[d]thiazol-2-yl)-6,7-dihydro-3H-imidazo[4,5-c]pyridin-5(4H)-yl)(thiazol-2-yl)methanone]: the AC50 (24 hrs compound incubation) is 500 to 1000 nM.

As for `O=C(c1ncn2ccccc12)N1CCc2[nH]cnc2[C@@H]1c1nc2c(F)cccc2s1` [Example 1144, (R)-(4-(4-fluorobenzo[d]thiazol-2-yl)-6,7-dihydro-1H-imidazo[4,5-c]pyridin-5(4H)-yl)(imidazo[1,5-a]pyridin-1-yl)methanone], the AC50 (24 hrs compound incubation) was more than 5000 nM.

`CC(=O)Cn1cc(C(=O)N2CCc3[nH]cnc3[C@H]2c2nc3c(F)cccc3s2)c(Cl)n1` [Example 1991, (S)-1-(3-chloro-4-(4-(4-fluorobenzo[d]thiazol-2-yl)-4,5,6,7-tetrahydro-1H-imidazo[4,5-c]pyridine-5-carbonyl)-1H-pyrazol-1-yl)propan-2-one]: the AC50 (24 hrs compound incubation) is less than 500 nM.

Turning to `C[C@H]1CN(C(=O)c2ocnc2C2CC2)[C@H](c2nc3c(F)cccc3s2)c2nc[nH]c21` [Example 1608, (4-cyclopropyloxazol-5-yl)((4S,7S)-4-(4-fluorobenzo[d]thiazol-2-yl)-7-methyl-6,7-dihydro-1H-imidazo[4,5-c]pyridin-5(4H)-yl)methanone], the AC50 (24 hrs compound incubation) fell in the range of 500 to 1000 nM.

Regarding `O=C(c1n[nH]c2ccccc12)N1CCc2[nH]cnc2C1c1nc2ccc(F)cc2s1` (centres unmarked), where the note is “24 hrs with compound”, the AC50 is 1000 to 5000 nM.

As to `O=C(c1ccnn1C(F)(F)F)N1CCc2[nH]cnc2[C@H]1c1nc2ccccc2s1` [Example 2097], the AC50 (24 hrs compound incubation) is less than 500 nM.

For the compound `Cc1nnc(CC(=O)N2CCc3[nH]cnc3C2c2nc3ccccc3s2)s1` (centres unmarked), the AC50 (24 hrs with compound) was more than 5000 nM.

Take `O=C(CCc1nccs1)N1CCc2[nH]cnc2[C@H]1c1nc2cccc(F)c2[nH]1` (single isomer, unassigned): the AC50 (24 hrs with compound) was in the range of 1000 to 5000 nM.
